Literature values, collected in patent US20040220135A1 (priority 2003, published 2004).

Tested on: liver metastases
Conditions: Gray et al (2001) Annals of Oncology 12: 1711-1720

## O=c1[nH]c(=O)n([C@H]2C[C@H](O)[C@@H](CO)O2)cc1F [floxuridine]
  Response rate: 17.6%
  Time to disease progression: 9.7 months
